According to patent publication US20240237526A1, “ORGANIC COMPOUND, LIGHT-EMITTING DEVICE, LIGHT-EMITTING APPARATUS, AND ELECTRONIC DEVICE” (SEMICONDUCTOR ENERGY LABORATORY CO., LTD., priority 2022, published 2024):

Assay: solubility test in water by visual inspection
Format: physicochemical
Conditions: room temperature (RT), one atmosphere, ultrasonic irradiation
Protocol: In this example, the solubility of the organic compound that can be used in the display apparatus of one embodiment of the present invention is described. Note that the solubility test was conducted at a pressure of one atmosphere at room temperature (RT).
(§1) Into a 110 mL sample bottle, 1.22 mg of 2tiiSF was put and 10 mL of water was added thereto. This mixture was irradiated with ultrasonic waves for one minute. A precipitated white powder was found by visual inspection for an insoluble residue. After further addition of 10 mL of water and one-minute ultrasonic wave irradiation, a precipitated white powder was found by visual inspection. This procedure was repeated until the dissolution was confirmed by visual inspection.
The precipitated white powder was found until the total amount of water reached 100 mL.
as §1, with “1.08” for “1.22”, “2hppSF” for “2tiiSF”
The precipitated white powder was found until the total amount of water reached 50 mL. […]

c1ccc2c(c1)-c1ccccc1C21c2ccccc2-c2ccc(N3CCN4CCN=C43)cc21 [2tiiSF, 1-(9,9′-spirobi[9H-fluoren]-2-yl)-2,3,5,6-tetrahydro-1H-imidazo[1,2-a]imidazole]
weight which can be dissolved in 1.0 mL of water: less than 0.012 mg
